From the supplement of paper PMC10307832

What follows are cell lines tested with CC1(COc2ccc3c(c2)ncn3-c2ccc3cccc(N4CCC(N)CC4)c3n2)COC1 [Crenolanib] + Cc1nc(NC(=O)N2CCC[C@H]2C(N)=O)sc1-c1ccnc(C(C)(C)C(F)(F)F)c1 [Alpelisib] (partner 2 µM) (assay: relative viability (nuclei count vs DMSO), 5 days (fraction); higher = more cells survive). Conditions: first compound 0.01 µM.
Method in brief: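 Cells from lung cancer lines were seeded into 1536-well plates and, one day later, dosed by pin tool. Treatments were either a single drug or a fixed dose of an anchor drug with five library-drug doses (not always all listed) in √10 steps. After 5 days, nuclei were stained in a one-step fixation (final 0.05% Triton X-100, 1% formaldehyde, 1 ug/ml Hoechst) and counted on 4× images, and relative viability is the treated-to-vehicle nuclei ratio, as the median of duplicate plates.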

Cell Line | relative viability
NCI-H2023 | 0.627
A-427 | 1.06
NCI-H460 | 0.571
NCI-H727 | 0.609
NCI-H1755 | 0.958
NCI-H520 | 0.868
NCI-H2405 | 1
SW 1573 | 0.824
NCI-H1395 | 1.1
201T | 1.01
NCI-H1975 | 0.602
HOP-62 | 0.851
NCI-H2347 | 1.1
NCI-H1355 | 0.845
NCI-H650 | 1.14
CAL-12T | 1.33
NCI-H1666 | 0.932

Cell Line | relative viability
H3255 | 0.811
NCI-H23 | 0.845
NCI-H1915 | 1.04
NCI-H1437 | 0.999
NCI-H322M | 0.807
NCI-H1792 | 0.707
NCI-H2085 | 1.11
NCI-H1793 | 0.684
PC-3 [JPC-3] | 1.07
EKVX | 0.893
LCLC-103H | 0.852
NCI-H1944 | 0.881
NCI-H1993 | 0.682
SK-LU-1 | 1.04
NCI-H358 | 0.897
NCI-H661 | 0.894
RERF-LC-KJ | 0.839

Same assay, conditions: first compound 0.03162 µM

Cell Line | relative viability
NCI-H2023 | 0.655
A-427 | 1.1
NCI-H460 | 0.54
NCI-H727 | 0.671
NCI-H1755 | 0.953
NCI-H520 | 0.878
NCI-H2405 | 0.76
SW 1573 | 0.765
NCI-H1395 | 1.14
201T | 1.02
NCI-H1975 | 0.663
HOP-62 | 0.985
NCI-H2347 | 1.04
NCI-H1355 | 0.803
NCI-H650 | 1.13
CAL-12T | 1.12
NCI-H1666 | 0.969

Cell Line | relative viability
H3255 | 0.676
NCI-H23 | 0.797
NCI-H1915 | 1.07
NCI-H1437 | 1.07
NCI-H322M | 0.909
NCI-H1792 | 0.741
NCI-H2085 | 0.918
NCI-H1793 | 0.964
PC-3 [JPC-3] | 0.982
EKVX | 0.96
LCLC-103H | 0.859
NCI-H1944 | 0.892
NCI-H1993 | 0.629
SK-LU-1 | 0.931
NCI-H358 | 1.01
NCI-H661 | 0.609
RERF-LC-KJ | 0.761

Same assay, conditions: first compound 0.1 µM

Cell Line | relative viability
NCI-H2023 | 0.594
A-427 | 1.02
NCI-H460 | 0.41
NCI-H727 | 0.563
NCI-H1755 | 0.915
NCI-H520 | 0.863
NCI-H2405 | 0.496
SW 1573 | 0.706
NCI-H1395 | 1.1
201T | 0.998
NCI-H1975 | 0.605
HOP-62 | 1.03
NCI-H2347 | 0.642
NCI-H1355 | 0.911
NCI-H650 | 0.972
CAL-12T | 1.21
NCI-H1666 | 1.04

Cell Line | relative viability
H3255 | 0.71
NCI-H23 | 0.604
NCI-H1915 | 1.04
NCI-H1437 | 0.944
NCI-H322M | 0.829
NCI-H1792 | 0.697
NCI-H2085 | 0.948
NCI-H1793 | 0.712
PC-3 [JPC-3] | 0.981
EKVX | 0.862
LCLC-103H | 0.888
NCI-H1944 | 0.742
NCI-H1993 | 0.688
SK-LU-1 | 0.703
NCI-H358 | 0.756
NCI-H661 | 0.479
RERF-LC-KJ | 0.802

Same assay, conditions: first compound 0.3162 µM

Cell Line | relative viability
NCI-H2023 | 0.725
A-427 | 1.12
NCI-H460 | 0.709
NCI-H727 | 0.665
NCI-H1755 | 1.05
NCI-H520 | 0.99
NCI-H2405 | 0.68
SW 1573 | 0.954
NCI-H1395 | 0.914
201T | 1.05
NCI-H1975 | 0.642
HOP-62 | 1.06
NCI-H2347 | 1.09
NCI-H1355 | 1.02
NCI-H650 | 1.06
CAL-12T | 1.49
NCI-H1666 | 1.08

Cell Line | relative viability
H3255 | 0.714
NCI-H23 | 0.778
NCI-H1915 | 1.07
NCI-H1437 | 1.18
NCI-H322M | 0.913
NCI-H1792 | 0.705
NCI-H2085 | 1.06
NCI-H1793 | 0.76
PC-3 [JPC-3] | 1.02
EKVX | 0.965
LCLC-103H | 0.886
NCI-H1944 | 0.927
NCI-H1993 | 0.737
SK-LU-1 | 1.27
NCI-H358 | 0.991
NCI-H661 | 0.597
RERF-LC-KJ | 1.03

Same assay, conditions: first compound 1 µM

Cell Line | relative viability
NCI-H2023 | 0.635
A-427 | 0.977
NCI-H460 | 0.265
NCI-H727 | 0.627
NCI-H1755 | 0.898
